{
  "source": "patent US12099061B2",
  "about": "“Nidogen 1 as a diagnostic marker and therapeutic target of hepatocellular carcinoma, composition and methods thereof” (THE UNIVERSITY OF HONG KONG, priority 2020, dated 2024)",
  "test_system": "MHCC97L cells",
  "experiment": "EV secretion of MHCC97L cells treated with Tipifarnib",
  "format": "cell-based, human",
  "conditions": "1 μM Tipifarnib for 48 hr; EVs isolated from conditioned medium",
  "description": "FIGS. 11A-11B Reduction of EV secretion attenuates liver tumor formation. (A) Quantification of EVs isolated from conditioned medium of MHCC97L treated with 1 μM Tipifarnib or DMSO vehicle for 48 hr. The analysis was done in triplicate. (B) Image of dissected liver of mice subjected to orthotopic liver injection of Matrigel/MHCC97L (1×10^6 cells/injection) pretreated with 48-hr DMSO or Tipifarnib (1 μM) (n=6). Measurement of tumor volume is shown. Data are represented as mean±SEM. *P<0.05 and ***P<0.001 from Student's t test.\nProtein lysates were obtained by cell lysis with NETN lysis buffer (0.1% NP40, 25 mM Tris-HCl, 50 mM […], 0.2 mM EDTA), supplemented with 10% cOmplete™ protease inhibitor cocktail and 10% PhosStop phosphatase inhibitor cocktail (Roche Applied Science). Bradford reagent (Bio-Rad Corporation) using bovine serum albumin as standard concentration was used to quantify protein amount. […] Chemiluminescent signals were detected by ECL™ Western Blotting Detection Reagents (Amersham). […] The level of EV-CD63 was expressed as amount of CD63 over EV protein amount (μg/μg) (w/w). […] The amount of isolated EVs was quantified. […] After 6 weeks post injection, mice were sacrificed and liver tumor volume was measured using a caliper and calculated using the formula: volume=L×W^2×0.5 (L, the largest diameter; W, the smallest diameter). […]",
  "data": [
    {"smiles": "Cn1cncc1[C@@](N)(c1ccc(Cl)cc1)c1ccc2c(c1)c(-c1cccc(Cl)c1)cc(=O)n2C", "note": "[tipifarnib, Tipifarnib]", "values": [
      {"measurement": "reduction of EV secretion from MHCC97L cells", "result": "up to 50%"}
    ]}
  ]
}
